Test results as given in patent US20220073471A1 (JIANGSU HENGRUI MEDICINE CO., LTD., priority 2019, published 2022).

Legend:
[1] = target: T1, Nav1.8 ion channel stably expressed on HEK293 cells (Homo sapiens, UniProt Q9Y5Y9); experiment: Inhibitory activity on Nav1.8, manual patch clamp; format: cell-based; conditions: resting, clamped at -80 mV, 1 μM TTX, read-out: IC50 on inhibiting the Nav1.8 channel activity
T1 construct: expressed in transfected cells; host or cells: HEK293
Excerpt: The purpose of the experiment is to investigate the effect of the compounds on Nav1.8 ion channel in an in vitro experiment, wherein the Nav1.8 ion channel is stably expressed on HEK293 cells. After the Nav1.8 current becomes stable, the Nav1.8 currents before and after the administration of the compound are compared so as to obtain the effect of the compound on the Nav1.8 ion channel.
Except for NaOH and KOH used for acid titration and base titration, all the compounds used for formulating the extracellular fluid and intracellular fluid were purchased from Sigma (St. Louis, Mo.). Extracellular fluid (mM): NaCl, 137; KCl, 4; CaCl2), 1.8; MgCl2, 1; HEPES, 10; glucose, 10; pH 7.4 (NaOH titration). Intracellular fluid (mM): aspartic acid, 140; MgCl2, 2; EGTA, 11; HEPES, 10; pH 7.2 (CsOH titration). All solutions of test compound and control compound contained 1 μM TTX.
The test compound was dissolved in dimethyl sulfoxide (DMSO) at a stock concentration of 9 mM. The stock solution of the test compound was dissolved in the extracellular fluid on the day of the test and formulated into the required concentration.
1) The compound was formulated into solutions with specified concentrations, the solutions were added to the pipelines respectively in order from low to high concentration, and the pipelines were marked.
2) The cell was transferred to the perfusion tank. A positive pressure was applied to the electrode. The tip of the electrode touched the cell. The three-way valve of the air extracting device was adjusted to a three-way state. A negative pressure was applied to the electrode, so that a high-resistance seal was formed between the electrode and the cell.
The negative pressure was applied continuously, thereby causing the cell membrane to rupture and forming a current path.
3) After the current for rupturing the cell membrane became stable, perfusion of different concentrations was carried out in sequence. Once the current was stable for at least one minute, perfusion of the next concentration was carried out.
4) The perfusion tank was cleaned. The perfusion tank was rinsed with the drug solutions in order from high to low concentration, and the rinse duration for each concentration of drug solution was 20 seconds. The perfusion tank was finally rinsed with the extracellular fluid for 1 minute.
The cell was clamped at −80 mV. The cell was depolarized to 10 mV with a square wave lasting 10 milliseconds to obtain the Nav1.8 current. This procedure was repeated every 5 seconds. The maximum current caused by the square wave was measured. After the current became stable, the test compound was perfused. After the response became stable, the blocking intensity was calculated.
The data was stored in the computer system for analysis. Data collection and analysis were carried out by pCLAMP 10 (Molecular Devices, Union City, Calif.), and the analysis results were reviewed by the administrator. Stable current means that the current changes within a limited range over time. The magnitude of stable current was used to calculate the effect of the compound at the concentration.

[2] = Pharmacokinetics assay in rats after intragastrical administration; format: in vivo; conditions: both sexes, Sprague-Dawley (SD), rat, plasma, po, 2 mg/kg; for Vd/F: read-out: Apparent distribution volume Vz/F; for AUC: read-out: Area under curve AUC; for bioavailability: read-out: Bioavailability F; for CL/F: read-out: Clearance CL/F; for half-life: read-out: Half-life T½ (converted); for Cmax: read-out: Plasma concentration Cmax; for MRT: read-out: Residence time MRT
Protocol: Rats were used as test animals. The drug concentration in plasma at different time points was determined by LC/MS/MS method after intragastrical administration of the compounds of Example 2, Example 11, Example 12, Example 15, Example 31 and Example 33 to rats. The pharmacokinetic behavior of the compounds of the present disclosure was studied and evaluated in rats.
Twenty-four healthy adult SD rats (half male and half female, equally divided into six groups, four rats per group) were purchased from Shanghai Jiesijie Laboratory Animal Co., LTD.
A certain amount of the test compound was weighed, to which 5% of DMSO, 5% of tween 80 and 90% of normal saline were added to prepare a 0.2 mg/mL colorless, clear and transparent solution.
After an overnight fast, SD rats were intragastrically administered the test compound at an administration dose of 2.0 mg/kg and an administration volume of 10.0 mL/kg.
The rats were intragastrically administered the compounds of Example 2, Example 11, Example 12, Example 15, Example 31 and Example 33. 0.2 ml of blood was taken from the orbit before the administration and at 0.5, 1.0, 2.0, 4.0, 6.0, 8.0, 11.0 and 24.0 hours after the administration. The samples were stored in heparinized tubes, and centrifuged for 10 minutes at 10000 rpm and 4° C. to separate the blood plasma. The plasma samples were stored at −20° C. The rats were fed 2 hours after the administration.
The content of the test compound in the plasma of rats after intragastrical administration of the test compound at different concentrations was determined: 25 μL of rat plasma at each time point after the administration was taken, to which 30 μL of the internal standard solution and 175 μL of acetonitrile were added. The resulting solution was vortex-mixed for 5 minutes, and centrifuged for 10 minutes (3700 rpm). 0.5 μL of the supernatant was taken from the plasma samples for LC/MS/MS analysis.

T1 sequence (Q9Y5Y9 whole entry): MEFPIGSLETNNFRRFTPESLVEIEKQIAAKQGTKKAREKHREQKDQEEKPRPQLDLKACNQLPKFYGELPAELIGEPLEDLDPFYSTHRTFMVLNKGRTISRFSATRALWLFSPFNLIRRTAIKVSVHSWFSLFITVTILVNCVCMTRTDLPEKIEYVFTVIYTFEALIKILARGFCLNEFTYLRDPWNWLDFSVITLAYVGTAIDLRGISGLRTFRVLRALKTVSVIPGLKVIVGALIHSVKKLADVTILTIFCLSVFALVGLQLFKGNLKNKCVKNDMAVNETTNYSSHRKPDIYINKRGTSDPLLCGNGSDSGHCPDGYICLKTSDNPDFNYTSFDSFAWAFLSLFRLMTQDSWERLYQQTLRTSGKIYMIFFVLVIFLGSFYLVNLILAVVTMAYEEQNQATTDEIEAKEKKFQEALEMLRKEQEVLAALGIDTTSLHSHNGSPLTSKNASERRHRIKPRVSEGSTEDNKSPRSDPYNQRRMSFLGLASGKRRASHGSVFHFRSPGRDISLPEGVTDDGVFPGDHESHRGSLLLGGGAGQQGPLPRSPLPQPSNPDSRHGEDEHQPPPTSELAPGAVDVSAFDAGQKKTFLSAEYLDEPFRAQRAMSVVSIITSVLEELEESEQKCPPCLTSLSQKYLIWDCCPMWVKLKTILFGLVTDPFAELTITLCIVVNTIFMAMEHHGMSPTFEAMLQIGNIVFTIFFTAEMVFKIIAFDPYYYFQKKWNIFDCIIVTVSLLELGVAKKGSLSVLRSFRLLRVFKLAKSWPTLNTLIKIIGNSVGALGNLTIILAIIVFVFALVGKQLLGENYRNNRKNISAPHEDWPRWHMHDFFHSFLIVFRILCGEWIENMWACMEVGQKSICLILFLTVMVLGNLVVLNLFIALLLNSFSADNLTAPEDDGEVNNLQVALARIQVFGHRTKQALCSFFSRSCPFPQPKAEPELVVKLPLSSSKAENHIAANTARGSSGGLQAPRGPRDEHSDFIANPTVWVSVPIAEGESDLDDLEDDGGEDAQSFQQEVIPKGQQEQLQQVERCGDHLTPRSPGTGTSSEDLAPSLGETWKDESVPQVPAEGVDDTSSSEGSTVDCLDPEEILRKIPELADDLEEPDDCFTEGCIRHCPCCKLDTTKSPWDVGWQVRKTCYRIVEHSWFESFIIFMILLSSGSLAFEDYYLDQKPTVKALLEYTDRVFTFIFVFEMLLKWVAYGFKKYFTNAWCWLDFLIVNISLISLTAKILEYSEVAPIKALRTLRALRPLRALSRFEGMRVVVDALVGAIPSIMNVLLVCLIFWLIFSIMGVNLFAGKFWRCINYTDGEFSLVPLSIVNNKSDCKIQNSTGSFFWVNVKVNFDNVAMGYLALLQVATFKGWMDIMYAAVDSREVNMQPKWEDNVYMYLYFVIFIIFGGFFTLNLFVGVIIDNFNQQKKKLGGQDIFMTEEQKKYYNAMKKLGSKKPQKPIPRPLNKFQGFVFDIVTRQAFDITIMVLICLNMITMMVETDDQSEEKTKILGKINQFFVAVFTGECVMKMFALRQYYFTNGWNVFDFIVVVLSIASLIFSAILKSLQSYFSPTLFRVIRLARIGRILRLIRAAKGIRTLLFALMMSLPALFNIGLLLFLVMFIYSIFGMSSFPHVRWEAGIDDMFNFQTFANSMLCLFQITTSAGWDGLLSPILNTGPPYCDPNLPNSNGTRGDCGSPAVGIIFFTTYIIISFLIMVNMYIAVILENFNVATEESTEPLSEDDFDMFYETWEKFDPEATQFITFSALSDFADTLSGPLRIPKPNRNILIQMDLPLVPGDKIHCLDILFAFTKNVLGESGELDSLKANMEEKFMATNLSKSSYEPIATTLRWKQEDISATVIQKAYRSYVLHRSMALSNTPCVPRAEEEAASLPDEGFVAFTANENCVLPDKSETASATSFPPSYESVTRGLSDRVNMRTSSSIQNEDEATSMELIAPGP

SMILES	IC50 [1]	Vd/F [2]	AUC [2]	bioavailability [2]	CL/F [2]	half-life [2]	Cmax [2]	MRT [2]
O=C(Nc1cn[nH]c(=O)c1)c1cc(Cl)c(C(F)(F)F)cc1Oc1ccc(F)cc1OC(F)(F)F [Example 15, 5-Chloro-2-(4-fluoro-2-(trifluoromethoxy)phenoxy)-N-(6-oxo-1,6-dihydropyridazin-4-yl)-4-(trifluoromethyl)benzamide]	4.7 nM	7.15 ± 0.682 L/kg	5690 ± 552 ng·h/mL	94%	1.46 ± 0.11 mL/min/kg	56.7 ± 6.6 h	295 ± 44 ng/mL	82.4 ± 10.2 h
[2H]C([2H])([2H])Oc1cc(F)ccc1Oc1cc(C(F)(F)F)c(Cl)cc1C(=O)Nc1cn[nH]c(=O)c1 [Example 35, 5-Chloro-2-(4-fluoro-2-(methoxy-d3)phenoxy)-N-(6-oxo-1,6-dihydropyridazin-4-yl)-4-(trifluoromethyl)benzamide]	0.54 nM	5.01 ± 0.875 L/kg	4330 ± 910 ng·h/mL	107%	7.93 ± 1.47 mL/min/kg	7.5 ± 1.92 h	392 ± 43 ng/mL	10.6 ± 2.3 h
O=C(Nc1cn[nH]c(=O)c1)c1cc(Cl)c(C(F)(F)F)cc1Oc1ccc(F)cc1OC1CC1 [Example 12, 5-Chloro-2-(2-cyclopropoxy-4-fluorophenoxy)-N-(6-oxo-1,6-dihydropyridazin-4-yl)-4-(trifluoromethyl)benzamide]	0.26 nM	4.17 ± 0.587 L/kg	5980 ± 1130 ng·h/mL	111%	4.3 ± 1.65 mL/min/kg	13.2 ± 7.8 h	435 ± 64 ng/mL	19.8 ± 10.4 h
Cc1cc(F)ccc1Oc1cc(C(F)(F)F)c(Br)cc1C(=O)Nc1cn[nH]c(=O)c1 [Example 33, 5-Bromo-2-(4-fluoro-2-methylphenoxy)-N-(6-oxo-1,6-dihydropyridazin-4-yl)-4-(trifluoromethyl)benzamide]	0.86 nM	3.99 ± 0.788 L/kg	5550 ± 3020 ng·h/mL	99%	6.4 ± 5.57 mL/min/kg	18.6 ± 17.5 h	382 ± 88 ng/mL	27.7 ± 24.2 h
COc1cc(F)ccc1Oc1cc(C(F)(F)F)c(Cl)cc1C(=O)Nc1cn[nH]c(=O)c1 [Example 11, 5-Chloro-2-(4-fluoro-2-methoxyphenoxy)-N-(6-oxo-1,6-dihydropyridazin-4-yl)-4-(trifluoromethyl)benzamide]	1.3 nM	5.33 ± 0.72 L/kg	1230 ± 621 ng·h/mL	98%	32.3 ± 15.2 mL/min/kg	2.3 ± 1.14 h	218 ± 103 ng/mL	
O=C(Nc1cn[nH]c(=O)c1)c1cc(Cl)c(C(F)(F)F)cc1Oc1ccc(F)cc1C1CC1 [Example 31, 5-Chloro-2-(2-cyclopropyl-4-fluorophenoxy)-N-(6-oxo-1,6-dihydropyridazin-4-yl)-4-(trifluoromethyl)benzamide]	0.94 nM	5.44 ± 0.705 L/kg	5620 ± 1230 ng·h/mL	66%	3.77 ± 2.7 mL/min/kg	33.3 ± 34.8 h	360 ± 65 ng/mL	48.3 ± 50.3 h
Cc1cc(F)ccc1Oc1cc(C(F)(F)F)c(C)cc1C(=O)Nc1cn[nH]c(=O)c1 [Example 34, 2-(4-Fluoro-2-methylphenoxy)-5-methyl-N-(6-oxo-1,6-dihydropyridazin-4-yl)-4-(trifluoromethyl)benzamide]	11.5 nM							
Cc1cc(F)ccc1Oc1cc(C(F)(F)F)c(Cl)cc1C(=O)Nc1cn[nH]c(=O)c1 [Example 2, 5-Chloro-2-(4-fluoro-2-methylphenoxy)-N-(6-oxo-1,6-dihydropyridazin-4-yl)-4-(trifluoromethyl)benzamide]	1.3 nM	4.71 ± 1.29 L/kg	5960 ± 4280 ng·h/mL	149%	6.24 ± 6.29 mL/min/kg	47 ± 54.6 h	399 ± 153 ng/mL	68.2 ± 78.3 h
COc1cc(F)ccc1Oc1ccc(OC(F)(F)F)cc1C(=O)Nc1cn[nH]c(=O)c1 [Example 22, 2-(4-Fluoro-2-methoxyphenoxy)-N-(6-oxo-1,6-dihydropyridazin-4-yl)-5-(trifluoromethoxy)benzamide]	87.8 nM							
Cc1ccccc1Oc1cc(C(F)(F)F)c(Cl)cc1C(=O)Nc1cn[nH]c(=O)c1 [Example 30, 5-Chloro-N-(6-oxo-1,6-dihydropyridazin-4-yl)-2-(o-tolyloxy)-4-(trifluoromethyl)benzamide]	16.2 nM							
Cc1cc(F)ccc1Oc1ccc(C(F)(F)F)cc1C(=O)Nc1cn[nH]c(=O)c1 [Example 7, 2-(4-Fluoro-2-methylphenoxy)-N-(6-oxo-1,6-dihydropyridazin-4-yl)-5-(trifluoromethyl)benzamide]	30.8 nM							
